Laboratory results published in patent publication US9896711B2, “Fluorogenic or fluorophoric compounds and uses thereof” (3M INNOVATIVE PROPERTIES COMPANY, priority 2011, dated 2018).
Read-outs that look alike come from different tables or passages of the source.

Legend:
[1] = see Bioorg. and Med. Chem. Lett., 8, 3107-3110 (1998); cited from earlier work
physchem = settings: 100 mM phosphate buffer in a 96 well plate, pH 8
Procedure: A 96 well plate was prepared with each well containing 100 microliters of 100 mM phosphate buffer at pH values ranging from 8.0 to 2.5 in 0.5 unit increments. […] A set of 10× diluted wells were also prepared to eliminate artifacts due to self-quenching of the fluorophore at high concentrations. The 10× dilutions were prepared by diluting the 1 mg/mL solution to 0.1 mg/mL in DMSO, and then adding 10 microliters of this solution to 100 microliters of 100 mM phosphate buffer in each of the wells.
The absorption spectra from 250 nanometers (nm) to 500 nm were recorded using a SPECTRAMAX M5 fluorescence plate reader (available from Molecular Devices of Sunnyvale Calif.) for each pH value.
Emission spectra at wavelengths from 410 nm to 700 nm were also recorded on the SPECTRAMAX M5 fluorescence plate reader at an excitation wavelength of 400 nm over the range of pH values in the plate. […]
The absorption at 400 nm and emission at 450 nm over the range of pH values were recorded on a SPECTRAMAX M5 fluorescence plate reader. […]
The absorption spectra from 300 nanometers (nm) to 700 nm were recorded for the 10× diluted wells using a SPECTRAMAX M5 fluorescence plate reader (available from Molecular Devices of Sunnyvale Calif.) for each pH value. […]

[2] = test system: Escherichia coli (ATCC 29425); test: Detection of microbial colonies on bacterial culture plates by fluorescence imaging; assay type: cell-based; settings: for time after which colonies were apparent in the images: Plates 8-1 and C-1, 200 nM, with MX-180 particles, about 20° C. to 27° C.; for mean fluorescence intensity of colonies over time: Plates 8-1 and C-1, averaged across 6 colonies, 30 seconds fluorescent illumination
Procedure: A mixture of 50 grams of xanthan gum powder and 50 grams of locust bean gum powder was placed in a 500 mL bottle and shaken manually for about 5 minutes. A cover film was prepared by sprinkling the mixture onto the adhesive of a pressure-sensitive adhesive coated sheet that is commercially available under the trade designation 9795R ADVANCED SEALING TAPE from 3M Company in St. Paul Minn. The adhesive coated sheet was tilted to remove excess powder. The coating weight of the gums was approximately 85 milligrams per 24 square inches (i.e, 0.55 milligrams per square centimeter).
A growth medium mixture was prepared by mixing 22.8 parts of pancreatic digest of casein, 15.9 parts of yeast extract, 45.5 parts of sodium pyruvate, 4.1 parts of dextrose, 9.0 parts of dibasic potassium phosphate, and 2.8 parts of monobasic potassium phosphate. A growth medium broth was prepared by mixing 500 mL of deionized water with 14.78 grams of the growth medium mixture in a beaker using an air motor mixer followed by adding 5 grams of locust bean gum in small increments, and mixing for several minutes. The beaker was covered with foil and the mixture was heated to 80° C., mixed for about 6 minutes, and then allowed to cool for about ten minutes while mixing without heat. The broth was then poured into a sterilized beaker, covered with a plastic bag and refrigerated. The cooled broth was stirred carefully with a spatula to avoid forming air bubbles and then knife coated onto a 24.4 cm wide sheet of 4 mil thick polyethylene terephthalate film that is commercially available under the trade designation MELINEX 453 from DuPont Teijin Films in Hopewell Va. The broth coated film was dried in an oven set at a temperature of 210° C. for about 10 minutes. The dried coating weight was about 1 mg per square centimeter.
A 20.3 centimeter (cm) wide sheet of 4 mil (a mil is equal to 0.001 inches) thick closed cell polystyrene foam (commercially available from American Fuji Seal, Inc. of Bardstown, Ky.) was laminated to a pressure-sensitive adhesive transfer tape on a release liner. The specific transfer tape used has an acrylic pressure-sensitive adhesive and is commercially available from 3M Company (Saint Paul, Minn.) under the trade designation 3M […] ADHESIVE 927. Circular discs measuring 5 cm in diameter were die-cut and removed from the laminate, forming circular openings centered within a 7.6 cm square from one end of 7.6 cm by 10.16 cm rectangle. The liner was removed and the adhesive-coated surface of the polystyrene foam was adhered to the broth coated film to provide a base member having a broth-coated self-supporting substrate and a hydrophobic spacer element (i.e., “foam dam”) adhered to the broth-coated surface of the supporting substrate. Rectangular plates measuring 7.6 cm by 10.16 cm were cut from the laminate, with the circular openings centered within a 7.6 cm square on one end of the 10.16 cm length. The cover film was attached to the base member with the powder coated side facing the foam dam with a double sided pressure-sensitive adhesive tape to form a culture plate.
For Example 8, an indicator solution was prepared by dissolving FTU-gal from Example 6 in DMSO at a 50 mM (millimolar) concentration (Indicator 1). The solution was further diluted 20-fold to provide a 2.5 mM solution (Indicator 2).
For Comparative Example C1, indicator solutions were prepared by dissolving TU-gal in DMSO at a 20 mM concentration (Indicator 3). […]

β-D-galactosidase = test: Emission of fluorogenic galactoside at pH 2.5 to 8.0 in the presence and absence of β-D-galactosidase; assay type: biochemical; settings: FIG. 6; emission 495 nm, excitation 430 nm, pH 5 to 7, with β-D-galactosidase; about two-thirds of sample fluorinated
Procedure: Absorbance and emission spectra for the first fraction of FTU-gal was recorded at pH 2.5 to 8.0 in the presence and absence of β-D-galactosidase, and then compared to spectra of TU-gal (prepared according to U.S. Pat. No. 6,566,508 (Bentsen et al.) under the same conditions.
About two-thirds of the sample tested was fluorinated.

Molecule	pKa (physchem)	time after which colonies were apparent in the images [2] [h]	mean fluorescence intensity of colonies over time [2]	other results
Cc1cc(=O)oc2c(F)c(O)c(F)cc12 [6,8-difluoro-4-methyl-7-hydroxycoumarin]				pKa [1]: 4.2
CCOC(=O)c1cc2cc(F)c(O)cc2oc1=O [6-FEHC, 6-fluoro-3-ethylcarboxylate-7-hydroxycoumarin]	~4.5			
CCOC(=O)c1cc2ccc(O)cc2oc1=O [EHC, 3-ethylcarboxylate-7-hydroxycoumarin, reference compound]	~6.5			
O=c1oc2cc(O[C@@H]3O[C@H](CO)[C@H](O)[C@H](O)[C@H]3O)ccc2cc1-c1cccs1 [TU-gal, 3-thienylumbelliferone-pyanogalactoside, reference compound]		14	tended to plateau over time	
fluorinated 3-thienylumbelliferone-pyranogalactoside [FTU-gal]		14	continued to increase	signal to noise (background) ratio over time ([2]; Plates 8-1 and C-1, six colonies and six background spots): always higher; enhancement in intensity versus TU that is not fluorinated (β-D-galactosidase): more than 2 fold
